Laboratory results reported in patent US20150004106A1, “ACNE treatment method” (priority 2013, published 2015).

What was measured:
acne = assay: case study of topical beta-sitosterol treatment of acne; format: in vivo; settings: for reduction in acne: end of study, after four weeks of application; for mean reduction in acne: first week
Text: This vehicle containing the beta-sitosterol is applied to the sites of the subcutaneous gland disorders on a twice daily basis (morning and evening).
FIG. 4 is a table indicating the results found in a case study.
The study used a cross section of the population having a distribution of sexes, ages, and areas being affected.
At the end of the study, after four weeks of application, the women found a fifty percent reduction with the men showing a forty-five percent reduction.

[1] = alcohols; cited from earlier work

SMILES: CCC(CCC(C)C1CCC2C3CC=C4CC(O)CCC4(C)C3CCC12C)C(C)C (stereo not drawn) [beta-sitosterol, 17-(5-Ethyl-6-methylheptan-2-yl)-10-13-dimethyl-2,3,4,7,8,9,11,12,14,16,17-deodeccahydrom-1H-cyclopental(alpha)phenanthren-3-ol]
- change of acne in the affected areas (acne; all cases, start of use): immediate reduction in the acne
- change of acne with continuous use (acne; all of the subjects, continuous use): further reductions in acne
- reduction in acne (acne; men): forty-five
- mean reduction in acne (acne; men): 10%
- reduction in acne (acne; women): fifty
- mean reduction in acne (acne; women): 10%
- solubility [1]: hydrophobic and soluble in alcohols
